{
  "source": "patent US11612566B2",
  "about": "“Lamotrigine oral liquid suspension and use thereof” (OWP Pharmaceuticals, Inc., priority 2019, dated 2023)",
  "origin": "cited, not measured here",
  "settings": "BCS class II molecule; poorly soluble in water",
  "data": [
    {"smiles": "Nc1nnc(-c2cccc(Cl)c2Cl)c(N)n1", "note": "[Lamotrigine, 6-(2,3-dichlorophenyl)-1,2,4-triazine-3,5-diamine]", "values": [
      {"measurement": "solubility", "result": "low"}
    ]}
  ]
}
